Assays:
[1] = biological target: Histone deacetylase; assay: Inhibition of HDAC (unknown origin); format: protein assay, Homo sapiens
[2] = biological target: Vitamin D3 receptor (Homo sapiens, UniProt P11473); assay: Agonist activity at Vitamin D receptor (unknown origin) by fluorescence polarization assay
[3] = biological target: T1, Histone deacetylase 1 (Homo sapiens, UniProt Q13547); assay: Inhibition of HDAC1 in human HeLa cell nuclear extract using Bos-Lys(acetyl)-AMC as substrate preincubated for 5 mins followed by substrate addition incubated for 30 mins; format: cell-free
T1 sequence (Q13547 whole entry): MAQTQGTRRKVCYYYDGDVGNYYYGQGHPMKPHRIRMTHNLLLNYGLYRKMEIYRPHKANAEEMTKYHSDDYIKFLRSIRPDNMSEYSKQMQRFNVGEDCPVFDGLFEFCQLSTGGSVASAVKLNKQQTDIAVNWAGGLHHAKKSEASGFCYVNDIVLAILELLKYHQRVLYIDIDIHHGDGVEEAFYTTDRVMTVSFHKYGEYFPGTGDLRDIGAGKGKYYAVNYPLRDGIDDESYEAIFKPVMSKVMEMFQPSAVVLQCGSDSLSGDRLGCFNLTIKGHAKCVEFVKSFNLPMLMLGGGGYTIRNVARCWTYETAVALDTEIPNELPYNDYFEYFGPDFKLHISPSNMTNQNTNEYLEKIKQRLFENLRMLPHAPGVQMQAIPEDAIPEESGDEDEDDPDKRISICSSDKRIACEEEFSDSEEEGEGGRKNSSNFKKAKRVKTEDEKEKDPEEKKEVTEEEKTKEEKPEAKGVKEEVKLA

[4] = tested on: Epidermal growth factor receptor (Homo sapiens), P00533 [UNDEFINED MUTATION]; assay: Inhibition of EGFR T790M (unknown origin) at 1 uM incubated for 40 mins in presence of ATP relative to control
Epidermal growth factor receptor (Homo sapiens), P00533 [UNDEFINED MUTATION], sequence (P00533 whole entry, looked up, stated change not applied): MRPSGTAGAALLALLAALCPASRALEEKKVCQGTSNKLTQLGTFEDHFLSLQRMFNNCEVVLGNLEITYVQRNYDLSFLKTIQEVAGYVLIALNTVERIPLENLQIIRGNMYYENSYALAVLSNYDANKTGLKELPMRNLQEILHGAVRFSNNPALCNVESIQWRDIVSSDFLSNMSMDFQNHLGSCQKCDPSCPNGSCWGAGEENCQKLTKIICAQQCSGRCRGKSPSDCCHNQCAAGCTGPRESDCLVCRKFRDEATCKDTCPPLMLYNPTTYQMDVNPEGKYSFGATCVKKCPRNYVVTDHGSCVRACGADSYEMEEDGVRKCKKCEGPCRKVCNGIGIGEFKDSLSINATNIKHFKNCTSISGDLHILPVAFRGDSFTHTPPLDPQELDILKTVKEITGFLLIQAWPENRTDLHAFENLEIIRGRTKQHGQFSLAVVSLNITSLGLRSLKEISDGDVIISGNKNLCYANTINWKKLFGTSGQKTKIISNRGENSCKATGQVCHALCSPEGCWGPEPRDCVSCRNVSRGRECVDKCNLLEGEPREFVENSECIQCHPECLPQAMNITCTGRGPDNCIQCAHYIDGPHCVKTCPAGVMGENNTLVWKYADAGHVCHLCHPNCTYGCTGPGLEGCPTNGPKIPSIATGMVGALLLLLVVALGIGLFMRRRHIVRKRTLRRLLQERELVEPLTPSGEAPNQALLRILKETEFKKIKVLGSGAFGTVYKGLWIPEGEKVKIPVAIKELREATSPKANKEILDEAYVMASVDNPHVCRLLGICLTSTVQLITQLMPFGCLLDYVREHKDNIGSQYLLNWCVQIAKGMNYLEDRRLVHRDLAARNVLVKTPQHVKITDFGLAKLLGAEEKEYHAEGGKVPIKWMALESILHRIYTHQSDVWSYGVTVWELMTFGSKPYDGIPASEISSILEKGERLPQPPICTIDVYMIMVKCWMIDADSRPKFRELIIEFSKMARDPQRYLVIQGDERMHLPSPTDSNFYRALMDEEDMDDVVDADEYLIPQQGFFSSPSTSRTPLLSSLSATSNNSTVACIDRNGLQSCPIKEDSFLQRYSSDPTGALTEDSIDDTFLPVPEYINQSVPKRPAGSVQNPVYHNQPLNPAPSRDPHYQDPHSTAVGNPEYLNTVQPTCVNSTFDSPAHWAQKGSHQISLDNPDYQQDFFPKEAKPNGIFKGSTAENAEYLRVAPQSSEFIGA

[5] = biological target: Tubulin; assay: Inhibition of tubulin polymerization (unknown origin) incubated for 15 mins in presence of GTP by fluorescence-based tubulin polymerization assay kit; format: protein-complex assay, Homo sapiens
[6] = tested on: SMMC-7721; assay: Cytotoxicity against human SMMC-7721 cells; format: functional, cell-based
[7] = tested on: DU-145; assay: Antiproliferative activity against human DU-145 cells incubated for 48 hrs by Sulforhodamine B staining method; format: functional, cell-based; conditions: DU-145, 48 h
[8] = biological target: Epidermal growth factor receptor (Homo sapiens, UniProt P00533); assay: Inhibition of EGFR (unknown origin)
[9] = biological target: Vascular endothelial growth factor receptor 2 (Homo sapiens, UniProt P35968); assay: Inhibition of VEGFR2 (unknown origin)
Vascular endothelial growth factor receptor 2, sequence (P35968 whole entry): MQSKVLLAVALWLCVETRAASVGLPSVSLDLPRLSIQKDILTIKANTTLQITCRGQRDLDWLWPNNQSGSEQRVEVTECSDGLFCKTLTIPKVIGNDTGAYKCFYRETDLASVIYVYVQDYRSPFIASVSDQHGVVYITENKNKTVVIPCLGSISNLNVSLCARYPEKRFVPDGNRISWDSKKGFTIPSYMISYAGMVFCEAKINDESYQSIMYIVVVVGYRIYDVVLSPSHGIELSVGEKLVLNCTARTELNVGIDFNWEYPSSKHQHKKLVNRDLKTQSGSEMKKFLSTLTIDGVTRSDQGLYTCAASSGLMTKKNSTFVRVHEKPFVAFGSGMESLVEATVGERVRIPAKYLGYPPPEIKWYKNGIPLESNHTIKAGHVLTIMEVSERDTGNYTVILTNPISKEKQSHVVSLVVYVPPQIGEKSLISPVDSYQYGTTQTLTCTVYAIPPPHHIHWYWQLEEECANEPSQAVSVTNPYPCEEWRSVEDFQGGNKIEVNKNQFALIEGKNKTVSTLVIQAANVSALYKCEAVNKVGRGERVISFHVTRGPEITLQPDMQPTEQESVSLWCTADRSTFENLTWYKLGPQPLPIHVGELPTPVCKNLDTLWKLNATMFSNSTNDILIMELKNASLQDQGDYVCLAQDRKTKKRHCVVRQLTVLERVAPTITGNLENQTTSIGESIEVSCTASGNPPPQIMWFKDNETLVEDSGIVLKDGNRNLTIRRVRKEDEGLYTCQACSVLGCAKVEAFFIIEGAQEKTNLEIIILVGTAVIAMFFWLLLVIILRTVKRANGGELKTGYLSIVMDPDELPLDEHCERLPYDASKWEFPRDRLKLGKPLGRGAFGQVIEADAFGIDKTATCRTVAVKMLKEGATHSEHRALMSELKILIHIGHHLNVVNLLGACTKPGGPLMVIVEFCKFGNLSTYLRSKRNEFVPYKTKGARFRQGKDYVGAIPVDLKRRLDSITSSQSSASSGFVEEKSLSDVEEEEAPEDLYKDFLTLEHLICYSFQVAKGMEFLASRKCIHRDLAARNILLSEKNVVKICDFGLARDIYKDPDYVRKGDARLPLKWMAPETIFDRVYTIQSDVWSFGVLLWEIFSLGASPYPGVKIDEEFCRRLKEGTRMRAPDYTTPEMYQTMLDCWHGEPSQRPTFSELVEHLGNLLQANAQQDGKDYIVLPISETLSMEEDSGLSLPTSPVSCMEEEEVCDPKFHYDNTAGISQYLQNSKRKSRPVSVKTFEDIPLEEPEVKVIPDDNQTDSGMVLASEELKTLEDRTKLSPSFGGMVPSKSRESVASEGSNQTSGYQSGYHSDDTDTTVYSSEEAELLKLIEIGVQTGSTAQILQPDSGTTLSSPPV

[10] = biological target: Histone-lysine N-methyltransferase EZH2 (Homo sapiens, UniProt Q15910); assay: Inhibition of EZH2 (unknown origin)
Histone-lysine N-methyltransferase EZH2, sequence (Q15910 whole entry): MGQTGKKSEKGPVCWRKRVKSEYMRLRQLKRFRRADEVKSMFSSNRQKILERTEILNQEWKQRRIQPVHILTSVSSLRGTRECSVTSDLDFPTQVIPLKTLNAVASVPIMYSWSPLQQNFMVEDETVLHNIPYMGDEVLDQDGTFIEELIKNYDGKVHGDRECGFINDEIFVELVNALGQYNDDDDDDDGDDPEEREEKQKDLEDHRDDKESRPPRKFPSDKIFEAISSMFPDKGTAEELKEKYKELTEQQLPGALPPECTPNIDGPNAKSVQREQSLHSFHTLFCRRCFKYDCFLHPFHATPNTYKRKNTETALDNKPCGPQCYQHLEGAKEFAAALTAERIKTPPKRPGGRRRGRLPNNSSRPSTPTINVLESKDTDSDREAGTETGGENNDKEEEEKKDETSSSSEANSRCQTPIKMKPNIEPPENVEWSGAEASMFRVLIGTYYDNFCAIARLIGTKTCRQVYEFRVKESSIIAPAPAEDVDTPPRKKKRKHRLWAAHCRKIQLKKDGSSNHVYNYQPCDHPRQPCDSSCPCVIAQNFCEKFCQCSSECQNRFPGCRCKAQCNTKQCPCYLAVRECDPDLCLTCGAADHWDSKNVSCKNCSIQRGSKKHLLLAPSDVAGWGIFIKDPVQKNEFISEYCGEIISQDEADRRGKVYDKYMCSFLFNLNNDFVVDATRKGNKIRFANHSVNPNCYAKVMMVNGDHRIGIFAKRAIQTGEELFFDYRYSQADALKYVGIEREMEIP

[11] = tested on: Panel NCI-60 (60 carcinoma cell lines); assay: Cytotoxicity against human Panel NCI-60 (60 carcinoma cell lines); format: functional, cell-based
[12] = tested on: MCF7; assay: Cytotoxicity against human MCF7 cells; format: functional, cell-based
[13] = biological target: T1, Histone deacetylase 1; assay: Inhibition of HDAC1 (unknown origin)
[14] = biological target: cGMP-specific 3',5'-cyclic phosphodiesterase (Homo sapiens, UniProt O76074); assay: Inhibition of PDE5 (unknown origin) incubated for 1.5 hrs by IMAP fluorescence polarization phosphodiesterase evaluation assay

Vitamin D3 receptor, sequence (P11473 whole entry): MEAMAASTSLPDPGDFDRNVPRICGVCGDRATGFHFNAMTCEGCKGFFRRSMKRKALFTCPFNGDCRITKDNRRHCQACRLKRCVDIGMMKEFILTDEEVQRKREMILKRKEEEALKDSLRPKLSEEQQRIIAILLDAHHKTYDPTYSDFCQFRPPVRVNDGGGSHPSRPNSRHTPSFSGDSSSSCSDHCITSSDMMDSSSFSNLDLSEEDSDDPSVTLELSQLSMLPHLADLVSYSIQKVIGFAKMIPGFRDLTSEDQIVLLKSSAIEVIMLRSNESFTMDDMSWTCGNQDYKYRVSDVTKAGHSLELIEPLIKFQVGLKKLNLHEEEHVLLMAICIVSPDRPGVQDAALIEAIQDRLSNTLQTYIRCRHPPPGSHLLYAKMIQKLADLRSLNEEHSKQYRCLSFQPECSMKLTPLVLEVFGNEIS

CNC(=O)c1cc(Oc2ccc(NC(=O)c3cccnc3)cc2)ccc1N
IC50 [1]: 5.23 µM

CC(/C=C/C(=O)NO)=C\[C@@H](C)C(=O)c1ccc(N(C)C)cc1 [TRICHOSTATIN]
IC50 [2]: 87 nM

Cn1cc(-c2ccnc(Nc3ccc(NC(=O)CCCCCC(=O)NO)cc3)n2)c2ccccc21
IC50 [3]: 23 nM
inhibition [4]: 35%

C[C@H]1COc2c(N3CCN(C)CC3)c(F)cc3c(=O)c(C(=O)NCc4cn(CCCCCCC(=O)NO)nn4)cn1c23
IC50 [5]: 1.79 µM

CNC(=O)c1cc(Oc2ccc(NC(=O)c3cccc(O)c3)cc2)ccc1N
IC50 [1]: 1.95 µM

CC(C)=CCC/C(C)=C\CC/C(C)=C\CSc1ccccc1C(=O)O
IC50 [6]: 66 µM

C[C@H]1COc2c(N3CCN(C)CC3)c(F)cc3c(=O)c(C(=O)OCc4cn(CCCCCCC(=O)NO)nn4)cn1c23
IC50 [5]: 1.84 µM

COc1cc(NC(=O)CCCCCC(=O)NO)ccc1Nc1nccc(-c2cn(C)c3ccccc23)n1
IC50 [3]: 121 nM
inhibition [4]: 13%

O=C(CCCCCCC(=O)Nc1ccccc1)NO [VORINOSTAT]
IC50 [7]: 790 nM
IC50 [8]: 12 nM
IC50 [9]: > 10000 nM

Cc1cc(C)c(CNC(=O)c2cnn(-c3ccccc3)c2C)c(=O)[nH]1
IC50 [10]: 5.78 µM

Cn1c(CCCC(=O)O)nc2cc(N(CCCl)CCCl)ccc21 [BENDAMUSTINE]
IC50 [11]: 77 nM

COc1cc2ncnc(Nc3ccc(Br)cc3)c2cc1OCCCCCCC(=O)NO
IC50 [12]: 0.88 µM

CC(C)=CCC/C(C)=C\CC/C(C)=C\CSc1ccccc1C(=O)NCCCCC(=O)NO
IC50 [13]: 0.58 nM
IC50 [6]: 4.93 µM

CN(C)C(=O)c1cc(Oc2ccc(NC(=O)c3ccc(Cl)c(C(F)(F)F)c3)cc2)ccc1N
IC50 [1]: > 1000 µM

C[C@H]1COc2c(N3CCN(C)CC3)c(F)cc3c(=O)c(C(=O)OCc4cn(CCCCCC(=O)NO)nn4)cn1c23
IC50 [5]: 5.45 µM

COc1cc2/c(=N/c3ccc(Br)cc3F)nc[nH]c2cc1OCC1CCN(C)CC1 [VANDETANIB]
IC50 [12]: 18.5 µM
IC50 [1]: > 10 µM

Cc1cc(C)c(CNC(=O)c2cc(C)n(-c3ccccc3)c2C)c(=O)[nH]1
IC50 [10]: 15.4 µM

CNC(=O)c1cc(Oc2ccc(NC(=O)c3ccc4ccccc4c3)cc2)ccc1N
IC50 [1]: 8.21 µM

CNC(=O)c1cc(Oc2ccc(NC(=O)c3ccc(N)cc3)cc2)ccc1N
IC50 [1]: 2.27 µM

O=C(O)CCN1CC(=O)N2[C@H](CC3c4ccccc4NC3[C@H]2c2ccc(Br)cc2)C1=O (stereo partly specified)
IC50 [14]: 2 nM

C[C@H]1COc2c(N3CCN(C)CC3)c(F)cc3c(=O)c(C(=O)NCc4cn(CCCCCCCC(=O)NO)nn4)cn1c23
IC50 [5]: 6.68 µM

COc1cc2ncnc(Nc3ccc(Cl)cc3Cl)c2cc1OCCCCCCC(=O)NO
IC50 [12]: 12 µM
IC50 [1]: 0.0028 µM
IC50 [9]: 84 nM

C[C@H]1COc2c(N3CCN(C)CC3)c(F)cc3c(=O)c(C(=O)OCc4cn(CCCCCCCC(=O)NO)nn4)cn1c23
IC50 [5]: 6.63 µM

Source: ChEMBL document CHEMBL5214883, “Comprehensive review for anticancer hybridized multitargeting HDAC inhibitors” (Eur J Med Chem, 2021)
